Experimental data: patent US20250382287A1, “PHARMACEUTICALLY ACCEPTABLE SALT AND CRYSTAL FORM OF NITROGEN-CONTAINING BRIDGE HETEROCYCLIC DERIVATIVE, AND METHOD FOR PREPARING SAME” (JIANGSU HENGRUI PHARMACEUTICALS CO., LTD., priority 2022, published 2025)

Tests used:
[1] = target: T1, Factor B enzyme (recombinant human complement factor B protein, as CVF:Bb complex) (Homo sapiens, UniProt P00751); settings: biological evaluation in Application No. WO2022143845; cited from earlier work
T1 construct: host or cells: HD CHO-S cells, pcDNA3.4 vector
T1 sequence (P00751 260-764 limits assumed): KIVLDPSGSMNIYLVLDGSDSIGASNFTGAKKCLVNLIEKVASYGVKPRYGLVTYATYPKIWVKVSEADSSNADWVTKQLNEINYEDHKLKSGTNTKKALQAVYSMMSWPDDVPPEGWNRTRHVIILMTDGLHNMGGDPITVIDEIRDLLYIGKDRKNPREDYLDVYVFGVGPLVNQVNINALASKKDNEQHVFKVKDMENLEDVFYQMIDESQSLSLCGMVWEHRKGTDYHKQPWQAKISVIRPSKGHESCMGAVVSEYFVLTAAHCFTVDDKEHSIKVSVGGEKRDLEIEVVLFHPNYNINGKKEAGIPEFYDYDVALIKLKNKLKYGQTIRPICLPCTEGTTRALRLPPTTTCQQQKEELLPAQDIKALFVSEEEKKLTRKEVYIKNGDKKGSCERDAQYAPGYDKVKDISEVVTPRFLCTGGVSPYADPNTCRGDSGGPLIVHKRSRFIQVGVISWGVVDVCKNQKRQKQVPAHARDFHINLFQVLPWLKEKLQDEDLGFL
T1 sequence (Q91132 23-649 partner limits assumed): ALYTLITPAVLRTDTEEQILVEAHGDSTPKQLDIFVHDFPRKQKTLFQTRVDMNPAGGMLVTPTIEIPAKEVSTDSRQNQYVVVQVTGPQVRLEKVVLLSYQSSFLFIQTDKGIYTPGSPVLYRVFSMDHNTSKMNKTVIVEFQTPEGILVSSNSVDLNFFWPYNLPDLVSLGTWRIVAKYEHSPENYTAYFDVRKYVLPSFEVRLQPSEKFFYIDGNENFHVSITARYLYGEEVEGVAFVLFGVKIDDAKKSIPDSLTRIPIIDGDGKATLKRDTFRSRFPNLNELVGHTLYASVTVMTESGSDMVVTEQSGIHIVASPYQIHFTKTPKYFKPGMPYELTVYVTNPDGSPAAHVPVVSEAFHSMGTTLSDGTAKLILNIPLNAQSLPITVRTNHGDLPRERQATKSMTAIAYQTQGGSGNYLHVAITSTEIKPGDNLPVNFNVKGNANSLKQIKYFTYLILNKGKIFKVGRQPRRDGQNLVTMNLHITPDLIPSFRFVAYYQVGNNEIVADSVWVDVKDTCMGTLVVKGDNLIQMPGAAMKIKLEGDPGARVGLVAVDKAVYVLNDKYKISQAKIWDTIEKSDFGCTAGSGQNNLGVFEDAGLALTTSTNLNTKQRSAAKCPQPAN
T1 sequence (Q91132 733-984 partner limits assumed): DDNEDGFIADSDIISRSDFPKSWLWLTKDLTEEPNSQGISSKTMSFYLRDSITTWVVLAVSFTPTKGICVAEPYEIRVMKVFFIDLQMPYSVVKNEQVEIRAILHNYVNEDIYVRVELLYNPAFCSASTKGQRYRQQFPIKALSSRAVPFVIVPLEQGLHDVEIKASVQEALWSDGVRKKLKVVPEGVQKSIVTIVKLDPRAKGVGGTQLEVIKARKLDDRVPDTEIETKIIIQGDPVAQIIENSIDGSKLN
T1 sequence (Q91132 1264-1642 partner limits assumed): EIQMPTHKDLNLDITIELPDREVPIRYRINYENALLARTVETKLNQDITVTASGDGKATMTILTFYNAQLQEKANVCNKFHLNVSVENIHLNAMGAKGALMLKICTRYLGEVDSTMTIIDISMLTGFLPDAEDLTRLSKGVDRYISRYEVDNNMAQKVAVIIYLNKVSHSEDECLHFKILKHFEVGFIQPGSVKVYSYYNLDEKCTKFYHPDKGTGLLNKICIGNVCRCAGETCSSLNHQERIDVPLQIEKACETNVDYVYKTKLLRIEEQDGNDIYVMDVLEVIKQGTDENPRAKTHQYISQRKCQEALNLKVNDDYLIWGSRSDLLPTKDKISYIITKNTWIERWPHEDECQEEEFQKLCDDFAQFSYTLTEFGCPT

[2] = Influencing factor stability (open flasks, light, high temperature, high humidity, 30 days); settings: for chemical stability under high humidity conditions: high humidity conditions only
[3] = DVS (dynamic vapor sorption) hygroscopicity testing; assay type: physicochemical; settings: for hygroscopic weight gain under normal storage conditions / hygroscopic weight gain under accelerated experimental conditions / hygroscopic weight gain under extreme conditions: DVS; for hygroscopic weight gain under normal storage conditions: 25° C. and 60% RH; for hygroscopic weight gain under accelerated experimental conditions: 70% RH; for hygroscopic weight gain under extreme conditions: 90% RH; for crystal form re-identification after DVS testing: XRPD after DVS
Description: DVS refers to dynamic vapor sorption: Surface Measurement Systems instrinsic was adopted; the humidity started at 50%, the humidity range investigated was 0%-95%, and the humidity was increased in increments of 10%; the criterion was that each gradient mass change dM/dT is less than 0.002%, TMAX 360 min, two cycles.

[4] = Long-term/accelerated stability (sealed, 25° C./60% RH and 40° C./75% RH); settings: for chemical stability / physical stability: 25° C./60% RH and 40° C./75% RH
[5] = Light exposure (4500 Lux), 5 days, open flask
[6] = Light exposure (4500 Lux), 10 days, open flask
[7] = Light exposure (4500 Lux), 30 days, open flask
[8] = light exposure (4500 Lux), 40° C. and 60° C., high humidity RH 75% and 92.5%, 30 days
[9] = 25° C., 60% RH, sealed, 1 month
[10] = 25° C., 60% RH, sealed, 2 months
[11] = 25° C., 60% RH, sealed, 3 months
[12] = 25° C., 60% RH, sealed, 6 months
[13] = 40° C., 75% RH, sealed, 1 month
[14] = 40° C., 75% RH, sealed, 2 months
[15] = 40° C., 75% RH, sealed, 3 months
[16] = 40° C., 75% RH, sealed, 6 months

CCO[C@H]1C[C@H]2CC[C@@](c3ccc(C(=O)O)cc3)(C1)N2Cc1c(OC)cc(C)c2[nH]ccc12 [compound I, 4-((1S,3S,5R)-3-ethoxy-8-((5-methoxy-7-methyl-1H-indol-4-yl)methyl)-8-azabicyclo[3.2.1]octan-1-yl)benzoic acid]
relatively good inhibitory effect: inhibitory effect on the enzyme activity of Factor B [1]

CCO[C@H]1C[C@H]2CC[C@@](c3ccc(C(=O)O)cc3)(C1)N2Cc1c(OC)cc(C)c2[nH]ccc12.Cc1ccc(S(=O)(=O)O)cc1 [crystal form I of the p-toluenesulfonate, 4-((1S,3S,5R)-3-ethoxy-8-((5-methoxy-7-methyl-1H-indol-4-yl)methyl)-8-azabicyclo[3.2.1]octan-1-yl)benzoic acid-p-toluenesulfonate]
99.9%: Purity % ([2]; 75% RH, 5 days, open flask) | Purity % ([2]; 75% RH, 10 days, open flask) | Purity % ([2]; 75% RH, 30 days, open flask) | Purity % ([2]; 92.5% RH, 30 days, open flask) | Purity % [2, 5] | Purity % [2, 6]
good: chemical stability [2, 8] | physical stability [2, 8]
No change: Salt form ([2]; 40° C., 5 days, open flask) | Salt form ([2]; 40° C., 10 days, open flask) | Salt form ([2]; 40° C., 30 days, open flask) | Salt form ([2]; 60° C., 5 days, open flask) | Salt form ([2]; 60° C., 10 days, open flask) | Salt form ([2]; 60° C., 30 days, open flask) | Salt form ([2]; 75% RH, 5 days, open flask) | Salt form ([2]; 75% RH, 10 days, open flask) | Salt form ([2]; 75% RH, 30 days, open flask) | Salt form ([2]; 92.5% RH, 5 days, open flask) | Salt form ([2]; 92.5% RH, 10 days, open flask) | Salt form ([2]; 92.5% RH, 30 days, open flask) | Salt form [2, 5] | Salt form [2, 6] | Salt form [2, 7] | Salt form [4, 9] | Salt form [4, 10] | Salt form [4, 11] | Salt form [4, 12] | Salt form [4, 13] | Salt form [4, 14] | Salt form [4, 15] | Salt form [4, 16]
about 1.87%: hygroscopic weight gain under extreme conditions [3]
about 1.37%: hygroscopic weight gain under accelerated experimental conditions [3]
99.8%: Purity % ([2]; 40° C., 5 days, open flask) | Purity % ([2]; 60° C., 5 days, open flask) | Purity % ([2]; 60° C., 10 days, open flask) | Purity % [4, 14] | Purity % [4, 15]
99.5%: Purity % ([2]; 40° C., 30 days, open flask)
White solid: Color and state ([2]; 40° C., 5 days, open flask) | Color and state ([2]; 40° C., 10 days, open flask) | Color and state ([2]; 40° C., 30 days, open flask) | Color and state ([2]; 60° C., 5 days, open flask) | Color and state ([2]; 60° C., 10 days, open flask) | Color and state ([2]; 60° C., 30 days, open flask) | Color and state ([2]; 75% RH, 5 days, open flask) | Color and state ([2]; 75% RH, 10 days, open flask) | Color and state ([2]; 75% RH, 30 days, open flask) | Color and state ([2]; 92.5% RH, 5 days, open flask) | Color and state ([2]; 92.5% RH, 10 days, open flask) | Color and state ([2]; 92.5% RH, 30 days, open flask) | Color and state ([2]; Initial, 0 days) | Color and state [2, 5] | Color and state [2, 6] | Color and state [2, 7]
100.0%: Purity % ([2]; 92.5% RH, 5 days, open flask) | Purity % ([2]; 92.5% RH, 10 days, open flask) | Purity % ([2]; Initial, 0 days) | Purity % [4, 9] | Purity % [4, 10] | Purity % [4, 11] | Purity % [4, 12] | Purity % [4, 13] | Purity % ([4]; Initial)
99.7%: Purity % ([2]; 40° C., 10 days, open flask) | Purity % ([2]; 60° C., 30 days, open flask) | Purity % [2, 7] | Purity % [4, 16]
about 1.22%: hygroscopic weight gain under normal storage conditions [3]
relatively good: chemical stability ([4]; 6 months) | physical stability ([4]; 6 months)
did not change: crystal form re-identification after DVS testing [3]

CCO[C@H]1C[C@H]2CC[C@@](c3ccc(C(=O)O)cc3)(C1)N2Cc1c(OC)cc(C)c2[nH]ccc12.Cl [crystal form II of the hydrochloride, 4-((1S,3S,5R)-3-ethoxy-8-((5-methoxy-7-methyl-1H-indol-4-yl)methyl)-8-azabicyclo[3.2.1]octan-1-yl)benzoic acid-hydrochloride]
good: chemical stability under high humidity conditions ([2]; 30 days) | physical stability [2, 8] | chemical stability ([4]; 6 months) | physical stability ([4]; 6 months)
99.3%: Purity % ([2]; 40° C., 10 days, open flask)
100.0%: Purity % ([2]; 75% RH, 5 days, open flask) | Purity % ([2]; 75% RH, 10 days, open flask) | Purity % ([2]; 75% RH, 30 days, open flask) | Purity % ([2]; 92.5% RH, 5 days, open flask) | Purity % ([2]; 92.5% RH, 10 days, open flask) | Purity % ([2]; 92.5% RH, 30 days, open flask) | Purity % ([2]; Initial, 0 days) | Purity % [4, 9] | Purity % [4, 10] | Purity % [4, 11] | Purity % [4, 12] | Purity % [4, 13] | Purity % [4, 14] | Purity % ([4]; Initial)
White solid: Color and state ([2]; 40° C., 5 days, open flask) | Color and state ([2]; 40° C., 10 days, open flask) | Color and state ([2]; 40° C., 30 days, open flask) | Color and state ([2]; 60° C., 5 days, open flask) | Color and state ([2]; 60° C., 10 days, open flask) | Color and state ([2]; 60° C., 30 days, open flask) | Color and state ([2]; 75% RH, 5 days, open flask) | Color and state ([2]; 75% RH, 10 days, open flask) | Color and state ([2]; 75% RH, 30 days, open flask) | Color and state ([2]; 92.5% RH, 5 days, open flask) | Color and state ([2]; 92.5% RH, 10 days, open flask) | Color and state ([2]; 92.5% RH, 30 days, open flask) | Color and state ([2]; Initial, 0 days) | Color and state [2, 5] | Color and state [2, 6] | Color and state [2, 7]
about 4.28%: hygroscopic weight gain under accelerated experimental conditions [3]
99.8%: Purity % [2, 5]
96.5%: Purity % [2, 7]
98.8%: Purity % ([2]; 60° C., 10 days, open flask)
99.4%: Purity % ([2]; 40° C., 5 days, open flask) | Purity % ([2]; 60° C., 5 days, open flask)
did not change: crystal form re-identification after DVS testing [3]
99.2%: Purity % [2, 6]
No change: Salt form ([2]; 40° C., 5 days, open flask) | Salt form ([2]; 40° C., 10 days, open flask) | Salt form ([2]; 40° C., 30 days, open flask) | Salt form ([2]; 60° C., 5 days, open flask) | Salt form ([2]; 60° C., 10 days, open flask) | Salt form ([2]; 60° C., 30 days, open flask) | Salt form ([2]; 75% RH, 5 days, open flask) | Salt form ([2]; 75% RH, 10 days, open flask) | Salt form ([2]; 75% RH, 30 days, open flask) | Salt form ([2]; 92.5% RH, 5 days, open flask) | Salt form ([2]; 92.5% RH, 10 days, open flask) | Salt form ([2]; 92.5% RH, 30 days, open flask) | Salt form [2, 5] | Salt form [2, 6] | Salt form [2, 7] | Salt form [4, 11] | Salt form [4, 12]
98.6%: Purity % ([2]; 40° C., 30 days, open flask)
99.9%: Purity % [4, 15] | Purity % [4, 16]
97.4%: Purity % ([2]; 60° C., 30 days, open flask)
about 3.93%: hygroscopic weight gain under normal storage conditions [3]
about 5.00%: hygroscopic weight gain under extreme conditions [3]
Crystal form: Salt form ([2]; Initial, 0 days)

CCO[C@H]1C[C@H]2CC[C@@](c3ccc(C(=O)O)cc3)(C1)N2Cc1c(OC)cc(C)c2[nH]ccc12.Cl [crystal form III of the hydrochloride, 4-((1S,3S,5R)-3-ethoxy-8-((5-methoxy-7-methyl-1H-indol-4-yl)methyl)-8-azabicyclo[3.2.1]octan-1-yl)benzoic acid-hydrochloride]
96.2%: Purity % [2, 7]
99.3%: Purity % ([2]; 60° C., 5 days, open flask)
99.5%: Purity % [4, 14] | Purity % [4, 15]
99.1%: Purity % ([2]; 60° C., 10 days, open flask)
99.4%: Purity % ([2]; 40° C., 10 days, open flask) | Purity % [4, 16]
99.2%: Purity % [2, 5]
about 2.960%: hygroscopic weight gain under accelerated experimental conditions [3]
about 4.5700%: hygroscopic weight gain under extreme conditions [3]
Crystal form: Salt form ([2]; Initial, 0 days)
98.4%: Purity % [2, 6]
White solid: Color and state ([2]; 40° C., 5 days, open flask) | Color and state ([2]; 40° C., 10 days, open flask) | Color and state ([2]; 40° C., 30 days, open flask) | Color and state ([2]; 60° C., 5 days, open flask) | Color and state ([2]; 60° C., 10 days, open flask) | Color and state ([2]; 60° C., 30 days, open flask) | Color and state ([2]; 75% RH, 5 days, open flask) | Color and state ([2]; 75% RH, 10 days, open flask) | Color and state ([2]; 75% RH, 30 days, open flask) | Color and state ([2]; 92.5% RH, 5 days, open flask) | Color and state ([2]; 92.5% RH, 10 days, open flask) | Color and state ([2]; 92.5% RH, 30 days, open flask) | Color and state ([2]; Initial, 0 days) | Color and state [2, 5] | Color and state [2, 6] | Color and state [2, 7]
99.0%: Purity % ([2]; 40° C., 30 days, open flask)
did not change: crystal form re-identification after DVS testing [3]
98.5%: Purity % ([2]; 60° C., 30 days, open flask)
99.6%: Purity % ([2]; 40° C., 5 days, open flask) | Purity % ([2]; 75% RH, 5 days, open flask) | Purity % ([2]; 75% RH, 10 days, open flask) | Purity % [4, 9] | Purity % [4, 10] | Purity % [4, 11] | Purity % [4, 12] | Purity % [4, 13] | Purity % ([4]; Initial)
about 2.57%: hygroscopic weight gain under normal storage conditions [3]
good: chemical stability under high humidity conditions ([2]; 30 days) | physical stability [2, 8] | chemical stability ([4]; 6 months) | physical stability ([4]; 6 months)
No change: Salt form ([2]; 40° C., 5 days, open flask) | Salt form ([2]; 40° C., 10 days, open flask) | Salt form ([2]; 40° C., 30 days, open flask) | Salt form ([2]; 60° C., 5 days, open flask) | Salt form ([2]; 60° C., 10 days, open flask) | Salt form ([2]; 60° C., 30 days, open flask) | Salt form ([2]; 75% RH, 5 days, open flask) | Salt form ([2]; 75% RH, 10 days, open flask) | Salt form ([2]; 75% RH, 30 days, open flask) | Salt form ([2]; 92.5% RH, 5 days, open flask) | Salt form ([2]; 92.5% RH, 10 days, open flask) | Salt form ([2]; 92.5% RH, 30 days, open flask) | Salt form [2, 5] | Salt form [2, 6] | Salt form [2, 7]
